pEC50, pIC50: −log10 of the molar value.
Key:
Hepatitis C virus [1] = assay: Inhibition of HCV 1b NS5B RNA polymerase; design: species or system Hepatitis C virus subtype 1b
Hepatitis C virus [2] = assay: Antiviral activity against HCV 1b in human Huh7/C24 cells after 72 hrs by replicon cell assay; assay type: functional, organism-based, Hepacivirus hominis; settings: genotype 1b, Huh-7, 72 h
[3] = Cytotoxicity against human Huh7/C24 cells after 72 hrs; assay type: cell-based, Huh-7
[4] = (§1) Metabolic stability in human liver microsomes assessed as half life at 5 uM; assay type: ADME, Microsome; settings: liver microsomes
[5] = Metabolic stability in human liver microsomes assessed as remains after 60 mins at 5 uM; assay type: ADME, Microsome; settings: read-out: Stability
[6] = Metabolic stability in cynomolgus monkey liver microsomes assessed as half life at 1 uM; assay type: ADME, Macaca fascicularis, Microsome
[7] = Solubility at pH 7.5; assay type: physicochemical; settings: buffer
[8] = Apparent permeability from apical to basolateral side in human Caco-2 cells at 10 uM; assay type: ADME, cell-based
[9] = Oral bioavailability in cynomolgus monkey at 1 mg/kg; assay type: ADME, organism-based, Macaca fascicularis; settings: in vivo
Cynomolgus monkey [10] = assay: AUC (infinity) in cynomolgus monkey at 1 mg/kg, po; assay type: ADME, organism-based, Macaca fascicularis, Plasma; design: time infinity, dose 1 mg/kg, route oral; settings: in vivo
Cynomolgus monkey [11] = assay: AUC (infinity) in cynomolgus monkey at 1 mg/kg, iv; assay type: ADME, organism-based, Macaca fascicularis, Plasma; design: time infinity, dose 1 mg/kg, route intravenous; settings: in vivo
[12] = Clearance in cynomolgus monkey at 1 mg/kg, iv; assay type: ADME, organism-based, Macaca fascicularis; design: dose 1 mg/kg, route intravenous; settings: in vivo
[13] = Metabolic stability in cynomolgus monkey liver microsomes assessed as remains after 60 mins at 1 uM; assay type: ADME, Macaca fascicularis, Microsome; settings: read-out: Stability
Liver microsomes = assay: as §1; assay type: ADME, Microsome; settings: microsomes, 5 µM

SMILES	pIC50 (Hepatitis C virus [1])	pEC50 (Hepatitis C virus [2])	CC50 at 72 h [3] [nM]	half-life at 5 µM [4] [min]	remaining at 1 h, 5 µM [5] [%]	half-life at 1 µM [6] [min]	solubility [7] [µM]	Papp A→B at 10 µM [8] [×10⁻⁶ cm/s]	bioavailability [9] [%]	AUC (Cynomolgus monkey [10]) [ng·h/mL]	AUC (Cynomolgus monkey [11]) [ng·h/mL]	clearance [12] [mL/min/kg]	remaining at 1 h, 1 µM [13] [%]	t1/2 (Liver microsomes) [min]
CS(=O)(=O)Nc1ccc2c(c1)S(=O)(=O)N=C(c1c(O)c3cccn3n(Cc3ccc(F)c(Cl)c3)c1=O)N2	7.60	7.66	> 1000	> 60	102	–	–	–	–	–	–	–	–	–
CC(C)CCn1c(=O)c(C2=NS(=O)(=O)c3ccccc3N2)c(O)c2cccn21	6.01	5.28	> 100000	14	–	11	> 200	11	63	12900	20500	49	–	–
CC(C)CCn1c(=O)c(C2=NS(=O)(=O)c3cc(N(C)S(C)(=O)=O)ccc3N2)c(O)c2cccn21	6.96	6.72	> 33000	> 60	55	60	> 100	4.3	7	79	1060	16	–	–
CN(c1ccc2c(c1)S(=O)(=O)N=C(c1c(O)c3cccn3n(Cc3ccc(F)cc3)c1=O)N2)S(C)(=O)=O	6.89	6.48	> 10000	> 60	90	> 60	> 60	0.9	6	107	1780	9	90	–
COc1ccc2c(c1)S(=O)(=O)N=C(c1c(O)c3cccn3n(CCC(C)C)c1=O)N2	5.66	4.77	> 100000	–	–	–	–	–	–	–	–	–	–	–
CC(C)CCn1c(=O)c(C2=NS(=O)(=O)c3cc(NS(C)(=O)=O)ccc3N2)c(O)c2cc(C#N)cn21	6.49	–	–	–	–	–	–	–	–	–	–	–	–	–
CC(C)CCn1nc(-c2cccs2)c(O)c(C2=Nc3ccc(NS(C)(=O)=O)cc3S(=O)(=O)N2)c1=O	–	–	–	–	–	–	> 100	0.03	2	30	1330	–	–	–
CC(C)CCn1c(=O)c(C2=Nc3ccc(NS(C)(=O)=O)cc3S(=O)(=O)N2)c(O)c2cccn21	> 8.00	8.07	> 1000	42	–	> 60	> 100	0.2	–	83	–	–	66	–
CC(C)CCn1c(=O)c(C2=NS(=O)(=O)c3cc(NS(C)(=O)=O)ccc3N2)c(O)c2cc(F)cn21	7.57	7.72	> 1000	> 60	78	–	–	–	–	–	–	–	–	–
CC(C)(C)CCn1c(=O)c(C2=NS(=O)(=O)c3cc(NS(C)(=O)=O)ccc3N2)c(O)c2cccn21	> 8.00	8.30	> 1000	10	–	14	> 100	0.7	2	25	1210	14	–	–
CC(C)CCn1c(=O)c(C2=NS(=O)(=O)c3cc(NS(=O)(=O)C4CC4)ccc3N2)c(O)c2cccn21	6.80	7.02	> 33000	59	–	> 60	> 100	0.8	4	141	3770	5	87	–
CS(=O)(=O)Nc1ccc2c(c1)S(=O)(=O)N=C(c1c(O)c3cccn3n(Cc3ccc(F)cc3)c1=O)N2	> 8.00	–	> 1000	> 60	86	> 60	> 100	0.1	1	6	539	31	90	–
O=c1c(C2=NS(=O)(=O)c3ccccc3N2)c(O)c2cccn2n1Cc1ccc(F)cc1	6.07	–	–	–	–	–	–	–	–	–	–	–	–	45
CN(c1ccc2c(c1)S(=O)(=O)N=C(c1c(O)c3cccn3n(CCC(C)(C)C)c1=O)N2)S(C)(=O)=O	7.22	6.92	> 33000	49	–	–	–	–	–	–	–	–	–	–
O=c1c(C2=NS(=O)(=O)c3cc(C4CCCS4(=O)=O)ccc3N2)c(O)c2cccn2n1Cc1ccc(F)cc1 (racemic)	6.89	6.42	> 33000	> 60	100	–	–	–	–	–	–	–	–	–
CC(C)NCC(O)COc1cccc2ccccc12 (stereo unspecified) [PROPRANOLOL]	–	–	–	–	–	–	–	10	–	–	–	–	–	–
